Laboratory results published in patent US5057414A, “Method for the determination of the activity of serine proteases or serine protease inhibitors” (Behringwerke Aktiengesellschaft, priority 1987, dated 1991).

B1: alpha2 -antiplasmin: specific plasmin inhibitor (protein, UniProt P08697 40-491, looked up)
Alpha-2-antiplasmin: NQEQVSPLTLLKLGNQEPGGQTALKSPPGVCSRDPTPEQTHRLARAMMAFTADLFSLVAQTSTCPNLILSPLSVALALSHLALGAQNHTLQRLQQVLHAGSGPCLPHLLSRLCQDLGPGAFRLAARMYLQKGFPIKEDFLEQSEQLFGAKPVSLTGKQEDDLANINQWVKEATEGKIQEFLSGLPEDTVLLLLNAIHFQGFWRNKFDPSLTQRDSFHLDEQFTVPVEMMQARTYPLRWFLLEQPEIQVAHFPFKNNMSFVVLVPTHFEWNVSQVLANLSWDTLHPPLVWERPTKVRLPKLYLKHQMDLVATLSQLGLQELFQAPDLRGISEQSLVVSGVQHQSTLELSEVGVEAAAATSIAMSRMSLSSFSVNRPFLFFIFEDTTGLPLFVGSVRNPNPSAPRELKEQQDSPGNKDFLQSLKGFPRGDKLFGPDLKLVPPMEEDYPQFGSPK

Tests used:
[1] = test system: antithrombin III (AT III); experiment: Comparison Experiment 13: oxidative inactivation of antithrombin III; assay type: biochemical; conditions: 37° C., 15 min preincubation, pH 8.8
Protocol: 50 pmol of AT III in 50 μl of 50 mM Tris, 100 mM NaCl, 0.1% (w/v) Triton×100, pH 8.8 buffer, are preincubated with increasing quantities of chloramine T or hydrogen peroxide in 50 μl of distilled water at 37° C. for 15 min. Then 3 pmol of human alpha-thrombin, 2.5 IU of heparin and 2 KIU of aprotinin in 500 μl of 100 mM Tris, 150 mM NaCl, pH 8.2, are added, and the mixture is incubated at 37° C. for 5 min. Addition of 500 μl of 0.4 mM H-D-CHA-But-ArgpNA was followed by further incubation for 3 min (37° C.). The reaction was stopped by 100 μl of 8.5 M acetic acid, and the change in extinction at 405 nm was determined.

[2] = test system: plasminogen activator inhibitors; conditions: Lawrence and Loskutoff, Biochemistry 25, 6351-6355, 1986; cited from earlier work
PAI/u-PA complex = experiment: Comparison Experiment 3: stability of the PAI/u-PA complex against chloramine T; assay type: biochemical
Protocol: (§1) 50 μl of various samples, namely either basic buffer A (1) or PAI-deficient plasma (2) and PAI-rich plasma (3) 20 were incubated with 200 μl of solution C (plasminogen activator reagent) at 23° C. for 10 min. After addition of 500 μl of solution A (basic buffer), 50 μl of chloramine T of various concentrations, 300 μl of solution E (plasmin substrate reagent) and 100 μl of solution F (plasminogen reagent), the mixtures were incubated at 37° C. for 15 min. Substrate conversion was stopped by addition of 100 μl of 8.5 M acetic acid, and the extinction at 405 nm was determined. The oxidizing agent chloramine T used in this experiment was employed in solutions of the following concentrations.

urokinase = experiment: Comparison Experiment 3: stability of urokinase against chloramine T in the pure buffer system; assay type: biochemical
Protocol: as §1

human alpha-thrombin = experiment: Comparison Experiment 13: oxidation resistance of thrombin; assay type: biochemical; conditions: 500 nmol of chloramine T or 500 times the dose of H202
[3] = test system: Plasmin/antiplasmin complexes; experiment: Comparison Experiment 14b: stability of plasmin/antiplasmin complexes to chloramine T; assay type: biochemical; conditions: in the reaction mixture, 37° C., 30 min
Protocol: 30 pmol of alpha2 -antiplasmin and basic buffer A (control mixture) are incubated with 50 pmol of plasmin in 175 μl of basic buffer A for 5 min (37° C.). Addition of 500 μl of chloramine T of various concentrations in basic buffer A is followed by incubation for 30 min (37° C.), and the detection reaction is started by addition of 200 μl of 2.5 mM chromogenic plasmin substrate H-D-Phe-Tyr-Arg-ANBA in basic buffer A. After 3 min (37° C.), the reaction is stopped by addition of 100 μl of 8.5 M acetic acid, and the change in extinction at 405 nm is determined. No additional plasmin activity is generated even by chloramine T concentrations above 5 mM in the reaction mixture, that is to say plasmin/antiplasmin complexes are oxidation-resistant.

u-PA/PAI complexes = experiment: Comparison Experiments 5 and 7: stability of u-PA/PAI complexes in the functional PAI determination; assay type: biochemical; conditions: in the reaction mixture; Comparison Experiment 5
Protocol: (§2) Preincubation of 50 μl of sample with 200 μl of a variant of solution C (plasminogen activator dissolved in basic buffer U) at 37° C. for five minutes was followed by addition of 200 μl of a variant of plasminogen reagent (F), composed of 100 mM Tris-HCl pH 8.4, crosslinked polypeptides 1%, ^R Triton×100 0.1%, 100 mM NaCl without tran-examic acid, NaN3 0.01 % (basic buffer U) with 10 CTA-U/ml plasminogen and 200 μl of distilled water with 10 mM chloramine T, 3 mM tranexamic acid to the reaction mixture. The mixture was incubated at 37° C. for 5 min, and 500 μl of 0.6 mM chromogenic plasmin substrate HD-Nva-CHA-Lys-pNA in 480 mM NaCl (or, as a substitute, 200 mM CsCl) were added. The resultant linear change in extinction, delta A/min, at 405 nm was followed. The values found for normal plasma were about 0.2/min.
The chloramine T concentrations added in the determination method specified in Example 3 were varied from 0 to 9 mmol/1 of reaction mixture. The assayed samples were either a) deficient in functional PAI (=PAI-deficientplasma) or b) rich in functional PAI. An optimum of generated plasmin activity is found on addition of between 1 and 4 mmol/1 chloramine T. The two plasma plots are parallel throughout the range, i.e. u-PA/PAI complexes are stable up to at least 9 mM chloramine T in the reaction mixture (=650 1). […]

plasmin [4] = experiment: Comparison Experiment 11: effect of chloramine T and/or tranexamic acid on plasmin activity in the functional PAI assay; assay type: biochemical; conditions: for delta A/4 min: 405 nm
Protocol: as §2, with “followed.” for “followed. The values found for normal plasma were about 0.2/min.”

plasmin [5] = conditions: Shieh and Travis, J.Biol.Chem. 262, 6055-6059, 1987; cited from earlier work
plasmin [6] = experiment: Oxidative inactivation of alpha2-antiplasmin; assay type: biochemical
Description: Accurate determination of the said proteins requires that specific and non-specific plasmin inhibitors be quantitatively inactivated. […] This effect corresponds to expectations inasmuch as the plasminogen activator inhibitors belong to the family of serine protease inhibitors (serpins) whose archetype, namely alpha1 -protease inhibitor, contains an oxidizable methionine in the active center. Oxidation of this methionine results in a methionine sulfoxide, and the inhibitory functions are lost with the formation thereof. Lawrence and Loskutoff show, both for alpha1 -protease inhibitor and for plasminogen activator inhibitor, that the inactivation is reversible by treatment with dithiothreitol and methionine-sulfoxide-peptide reductase, i.e. under the conditions described therein the plasminogen activator inhibitor is demonstrably inactivated by oxidation. It was all the less to be expected that the complexes of plasminogen activator and plasminogen activator inhibitor produced in the reaction remain intact even under the oxidizing conditions according to the invention. […] Furthermore, it is very remarkable that the reaction of a non-inhibited plasminogen activator with its substrate, a natural or synthetic plasminogen, as well as the enzymatic reactions dependent thereon, take place undisturbed during the oxidation process.

Molecule	quantity of chloramine T inactivating 50 pmol of AT III [1]	concentration inactivating plasminogen activator inhibitors [2]	chloramine T concentration at which the PAI/u-PA complex is stable (FIG. 3) (PAI/u-PA complex)	chloramine T concentration not resulting in cleavage of the PAI/u-PA complexes (PAI/u-PA complex; PAI-deficient vs PAI-rich plasma, in reaction mixture)	chloramine T concentration attacking urokinase (urokinase)	activity of thrombin at the dose inactivating AT III (human alpha-thrombin)	chloramine T concentration generating no additional plasmin activity [3]	chloramine T concentration up to which u-PA/PAI complexes are stable (u-PA/PAI complexes)	increase in plasmin activity with alpha2-antiplasmin-deficient plasma compared with normal plasma (plasmin [4])	delta A/4 min (plasmin [4]; Normal plasma without alpha2-antiplasmin)	delta A/4 min (plasmin [4]; Normal plasma)	resistance of alpha2-antiplasmin to oxidation (plasmin [5])	inactivation of alpha2-antiplasmin under the oxidizing conditions of the invention (plasmin [6])
Cc1ccc(S(=O)(=O)NCl)cc1 [chloramine T, Chloramine T]	500 nmol	about 10 μM	above 2 mmol/1	above 2 mM	1 mM	without the activity of thrombin being impaired	above 5 mM	at least 9 mM	20%	271 mA	225 mA		
B1												resistant to oxidation	nearly completely inactivated
